The subject of assay [1] is HMGA2 over-expressing and mock MDA-MB-231 stable transfectants. Nature of the assay: Radial microfluidic chemotaxis assay, HMGA2 over-expressing and mock MDA-MB-231 stable transfectants. Type of assay: cell-based, human. The text has this:
(§1) Interleukin-8 (IL8) (R&D systems, Minneapolis, USA), N-Formylmethionyl-leucyl-phenylalanine (fMLP) (Sigma, Oakville, Canada) and epidermal growth factor (EGF) (Bachem, Torrance, USA) were used as the chemoattractant for neutrophils and breast cancer cells, respectively, in the radial microfluidic chip. Neutrophils were isolated from blood of healthy donors using a negative magnetic isolation kit (STEMCELL, Vancouver, Canada). The human breast cancer cell lines MDA-MB-231 and MCF-7 were obtained from ATCC and cultured in DMEM/F12 plus 5% FBS. MDA-MB-231 cells containing a pcDNA3 human full-size HMGA2 expression construct or an empty vector control, as well as HMGA2-knockout MDA-MB-231 cells transduced with a specific lentiviral CRISPR/Cas9 construct (pLV-U6g-EPCG-HMGA2, HS0000278246; Sigma, Oakville, Canada), were cultured with DMEM/F12 medium plus 5% FBS. We employed a rabbit polyclonal anti-HMGA2 antibody (Cell Signalling Technologies, Whitby, Canada) in Western blot analysis to identify MDA-MB-231 clones with homozygous deletion of HMGA2. The small molecule Lin28 inhibitor 1632 (R&D Systems, Minneapolis, USA) was used at 10 and 20 μM to down-regulate endogenous HMGA2 in MDA-MB-231 cells.
(§2) Two microliters of cell suspension were added to the cell loading port of each unit. When the cells had collected in the docking area, chemoattractant solution and migration medium were added to the corresponding inlets (FIG. 2). We used 100 nM IL-8 and 100 nM fMLP dissolved in RPMI-1640 with 0.4% BSA neutrophils. For the migration studies with the human breast cancer cells, EGF (10 ng/ml, 50 ng/ml, 100 ng/ml, 200 ng/ml) dissolved in DMEM/ F-12 plus 1% FBS served as chemoattractant.
To characterize proper gradient generation, FITC-dextran (10 kD; Sigma, Oakville, Canada) was added to the solution containing the chemoattractant and fluorescent images were captured using an inverted fluorescent microscope (Ti-U; Nikon, Mississauga, Canada). Upon adding the chemoattractant solution, the inlets were covered and connected with silicone oil (A12728-22, density=0.963 g/ml; Alfa Aesar, Tewksbury, USA) to balance the pressure difference between the two inlets (FIG. 3A). […] Time-lapse images (10 sec intervals for neutrophils and 3 min intervals for the breast cancer cells) recorded cell migration. The faster migration of neutrophils was recorded for 20 minutes, whereas migration of the breast cancer cells was monitored for 6 hours.
(§3) Cell migration and chemotaxis were quantified by calculating the migration distance the cells moved away from the docking site. […] The migration angle ϕ is defined as the angle of the cell displacement vector in relation to the direction of the gradient and was calculated in 12 min intervals. […]

Assay [2] relates to MDA-MB-231 breast cancer cells. Put plainly: Radial microfluidic chemotaxis assay, MDA-MB-231 cells (migration distance). Type of assay: cell-based, human. The settings on record: for chemotaxis response (migration distance) to the EGF gradient after inhibitor treatment: MDA-MB-231 cells with reduced HMGA2 levels after LIN28 inhibitor, 6 h migration.
Source text: (§4) The device pattern was designed using AUTOCAD and printed on a transparent film at high resolution. The SU-8 device master was fabricated on a 3-inch silicon wafer by a two-layer photolithography (10). The first layer defines the cell docking structure that is used to align the cells to one side of the gradient channel prior to migration (FIG. 2). Its thickness should be cell specific, with it being slightly lower than the cell size but not be too low to prevent the cells from crossing, as described herein. We chose ˜2.5 μm for neutrophils and ˜7 μm for breast cancer cells. The Polydimethylsiloxane (PDMS) (Sylgard 184; Dow Corning, Midland, USA) device was fabricated using soft-lithography. Inlets (6 mm diameter), outlets (4 mm diameter), and the cell loading port (2 mm diameter) were punched. The PDMS replica was bonded to a glass slide to seal the channels after plasma treatment. The device channels were coated using rat tail collagen type I (3.8 μg/mL; Advanced BioMatrix, San Diego, USA) for one hour and then blocked by 0.4% BSA in RPMI medium for another hour before the migration experiment.
as §2
To characterize proper gradient generation, FITC-dextran (10 kD; Sigma, Oakville, Canada) was added to the solution containing the chemoattractant and fluorescent images were captured using an inverted fluorescent microscope (Ti-U; Nikon, Mississauga, Canada). Upon adding the chemoattractant solution, the inlets were covered and connected with silicone oil (A12728-22, density=0.963 g/ml; Alfa Aesar, Tewksbury, USA) to balance the pressure difference between the two inlets (FIG. 3A). The microscope stage was enclosed by an environmental control chamber to maintain the temperature at 37° C. during the cell migration experiments. Time-lapse images (10 sec intervals for neutrophils and 3 min intervals for the breast cancer cells) recorded cell migration. The faster migration of neutrophils was recorded for 20 minutes, whereas migration of the breast cancer cells was monitored for 6 hours.
Cell migration and chemotaxis were quantified by calculating the migration distance the cells moved away from the docking site. For MDA-MB-231 experiments, trajectories of representative cells were tracked by manual tracking method using ImageJ. The migration angle ϕ is defined as the angle of the cell displacement vector in relation to the direction of the gradient and was calculated in 12 min intervals. The cosine of ϕ was used to indicate the directionality of cell migration relative to the gradient: 1 indicates cell migration perfectly along the gradient direction; −1 indicates cell migration along the opposite direction of the gradient; a value between 1 and −1 indicates the level of deviation of cell migration from the gradient direction. The cell shape was outlined using ImageJ. Each condition was repeated in at least three independent experiments. For statistical analysis, the two-sample Student's t-test was used to compare different conditions using OriginPro. P<0.05 was considered statistically significant and indicated by an asterisk.

Assay [3] relates to endogenous HMGA2 protein levels in MDA-MB-231 cells. Nature of the assay: Western blot analysis of HMGA2 protein in MDA-MB-231 cells. Type of assay: cell-based, human. The settings on record: 72 h of treatment; for endogenous HMGA2 protein levels: 10 and 20 μM.
Source text: as §1
To test this hypothesis and further characterize the role of HMGA2 in chemotaxis of MDA-MB-231, we opted for a pharmacological (LIN28 inhibitor 1632) and CRISPR/Cas9 mediated HMGA2 knockout strategy (FIG. 4B-C). […] Next, we treated MDA-MB-231 with a specific CRISPR/Cas9 lentiviral construct and the homozygous loss of HMGA2 expression in MDA-MB-231 HMGA2 knockout (KO) cells was confirmed by Western blot analysis (FIG. 6C). When exposed to a 100 ng/mL EGF gradient in the radial microfluidic chemotaxis assays, we observed a marked reduction in migration distance in MDA-MB-231 KO clones when compared to parental MDA-MB-231 (FIG. 7C). […] This novel higher throughput device may be a valuable new tool to excel the search for new therapeutic drugs and small molecules that can mitigate chemotaxis in inflammatory and tumor cells. […]
A general note: A western blot detects proteins with antibodies after separation by electrophoresis.

In assay [4] the test system is human blood neutrophils. Nature of the assay: Radial microfluidic chemotaxis assay, neutrophils (migration distance). Type of assay: cell-based. The settings on record: for neutrophil chemotaxis: 100 nM gradient, 20-minute migration experiment.
Source text: as §4
Two microliters of cell suspension were added to the cell loading port of each unit. […]
To characterize proper gradient generation, FITC-dextran (10 kD; Sigma, Oakville, Canada) was added to the solution containing the chemoattractant and fluorescent images were captured using an inverted fluorescent microscope (Ti-U; Nikon, Mississauga, Canada). […] Time-lapse images (10 sec intervals for neutrophils and 3 min intervals for the breast cancer cells) recorded cell migration. The faster migration of neutrophils was recorded for 20 minutes, whereas migration of the breast cancer cells was monitored for 6 hours.
as §3

For “EGF: epidermal growth factor (Bachem), chemoattractant for breast cancer cells (NSDSECPLSHDGYCLHDGVCMYIEALDKYACNCVVGYIGERCQYRDLKWWELR; Epidermal growth factor; UniProt P01133 971-1023, looked up)”, the “migration of transfectants at lowest EGF gradient vs uniform field or medium” value in assay [1] (EGF gradient 10 ng/mL vs uniform EGF field 50 ng/mL or normal medium) is reported as “significantly stronger migration”. Further, the “migration distance of transfectants from the docking site, lowest EGF gradient” value in assay [1] (EGF gradient 10 ng/mL, compared with the other EGF gradients) is reported as “migrate the shortest distance”. Besides, the “migration of transfectants in EGF gradients” value in assay [1] (EGF gradients 200, 100, 50 and 10 ng/mL, 6 h) is “enhanced and directional migration with all EGF gradients tested”. Besides, the “migration of transfectants in uniform EGF field” value in assay [1] (uniform EGF field 50 ng/mL, 6 h) is reported as “such migratory behaviour was absent”. Also, the “migration of MDA-MB-231 cells in EGF gradient” value was “optimal and comparable migration” in assay [2] (200, 100, and 50 ng/ml EGF gradient); “actively migrated out of the docking structure towards the EGF gradient” in assay [2] (EGF gradient 100 ng/mL, 6 h). Also, the “directional migration of MDA-MB-231 cells in EGF gradient” value in assay [2] (EGF 10 ng/ml gradient, compared with higher EGF concentrations) is on record as “directional migration decreased significantly”. In addition, the “directional migration of MDA-MB-231 cells, low input EGF gradient” value in assay [2] (gradient with input EGF concentration 10 ng/mL) is on record as “significantly increase directional migration”. For the same compound, the “migration of MDA-MB-231 cells in uniform EGF field” value in assay [2] (uniform field of EGF 100 ng/mL, 6 h) was “remained stationary in the docking structure and failed to show a chemotaxis response”.

Take `CC(=O)N(C)c1cccc(-c2ccc3nnc(C)n3n2)c1` [LIN28 inhibitor 1632]: the results for the “chemotaxis response (migration distance) to the EGF gradient after inhibitor treatment” value in assay [2], in assay [2] (listed as 1632) and in assay [2] (listed as LIN28 inhibitor) were “markedly reduced migratory behavior”, “markedly reduced chemotaxis” and “significant reduction in chemotaxis response to the EGF gradient”, respectively. Also, in assay [3] (20 μM), the “presence of HMGA2 protein” value is given as “almost completely abolished the presence of HMGA2”. In addition, the “endogenous HMGA2 protein levels” value in assay [3] is on record as “down-regulated endogenous HMGA2 protein levels”; in assay [3] (listed as LIN28 inhibitor) it was “verifiable reduction of endogenous HMGA2 levels”.

Turning to `CSCC[C@H](NC=O)C(=O)N[C@@H](CC(C)C)C(=O)N[C@@H](Cc1ccccc1)C(=O)O` [fMLP, N-Formylmethionyl-leucyl-phenylalanine], the “chemotaxis response with the fMLP gradient relative to the IL-8 gradient” value in assay [4] (100 nM fMLP gradient vs 100 nM IL-8 gradient, 20 minutes) is reported as “more than 3 fold”. For the same compound, the neutrophil chemotaxis result in assay [4] is “stimulated neutrophil chemotaxis”.

Consider “IL-8: Interleukin-8 (R&D systems), chemoattractant for neutrophils”, for which the neutrophil chemotaxis entry in assay [4] is “stimulated neutrophil chemotaxis”.
